From patent US6297242A, “N-substituted amidine and guanidine oxazolidinone antibacterials and methods of use thereof” (Ortho-McNeil Pharmaceutical, Inc., priority 2000, dated 2001) come the findings set out here.

Converted amounts (≈) assume the structure as drawn.

One experiment has as its system E. faecium OC3312. Description: NCCLS broth microdilution MIC, E. faecium OC3312. As to conditions: Enterococcus faecium, cation adjusted Mueller-Hinton broth, 35° C., 16-20 hours. Type of experiment: cell-based. The procedure: (§1) Minimal inhibitory concentration (MIC) has been an indicator of in vitro antibacterial activity widely used in the art. The in vitro antimicrobial activity of the compounds was determined by the microdilution broth method following the test method from the National Committee for Laboratory Standards (NCCLS). This method is described in the NCCLS Document M7-A4, Vol.17, No.2, "Methods for Dilution Antimicrobial Susceptibility Test for Bacteria that Grow Aerobically-Fourth Edition", which is incorporated herein by reference.
(§2) In this method two-fold serial dilutions of drug in cation adjusted Mueller-Hinton broth are added to wells in microdilution trays. The test organisms are prepared by adjusting the turbidity of actively growing broth cultures so that the final concentration of test organism after it is added to the wells is approximately 5×10^4 CFU/well.
(§3) Following inoculation of the microdilution trays, the trays are incubated at 35° C. for 16-20 hours and then read. […] The amount of growth in the wells containing the test compound is compared with the amount of growth in the growth-control wells (no test compound) used in each tray. As set forth in Table 1, compounds of the present invention were tested against a variety of Gram positive and Gram negative pathogenic bacteria resulting in a range of activities, from 1 to ≥128 μg/mL depending on the organism tested.
In general terms: Broth dilution looks for growth in wells or tubes with falling amounts of substance.

In the next experiment the test system is MRSA OC2878. Nature of the experiment: NCCLS broth microdilution MIC, MRSA OC2878. As to conditions: Staphylococcus aureus, cation adjusted Mueller-Hinton broth, 35° C., 16-20 hours. Type of experiment: cell-based, methicillin-resistant Staphylococcus aureus. The procedure: as §1, §2, §3
In the next experiment the test system is S. aureus OC4172. Description: NCCLS broth microdilution MIC, S. aureus OC4172. Type of experiment: cell-based. The following applies: Staphylococcus aureus, cation adjusted Mueller-Hinton broth, 35° C., 16-20 hours. As to the method:
as §1, §2, §3

A word on the MIC: it is the smallest concentration in the dilution series that meets the test's criterion for growth inhibition. High values mean a need for much substance, low ones inhibition by little substance. On to `CN(C)C(=NC#N)NC[C@H]1CN(c2ccc(N3CCOCC3)c(F)c2)C(=O)O1` [Cmpd 4, N-Cyano-N'-[[(5S)-3-[3-fluoro-4-(4-morpholinyl)phenyl]-2-oxo-5-oxazolidinyl]methyl]-N", N"-dimethylguanidine], for which the figures for the MIC in the experiment with E. faecium OC3312, in the experiment with MRSA OC2878 and in the experiment on S. aureus OC4172 were 64 µg/mL (≈ 164 µM), 32 µg/mL (≈ 82 µM) and 16 µg/mL (≈ 41 µM), respectively.

With `CSC(=NC#N)NCC1CN(c2ccc(N3CCOCC3)c(F)c2)C(=O)O1` (stereo in doubt) [Cmpd 3, N-Cyano-N'-[[(5S)-3-[3-fluoro-4-(4-morpholinyl)phenyl]-2-oxo-5-oxazolidinyl]methyl]carbamimidothioic acid, methyl ester], the results for the MIC against E. faecium OC3312, in the experiment with MRSA OC2878 and against S. aureus OC4172 were 8 µg/mL (≈ 20.3 µM), 4 µg/mL (≈ 10.2 µM) and 4 µg/mL (≈ 10.2 µM), respectively.

With `CC(=O)N=C(C)NC[C@H]1CN(c2ccc(N3CCOCC3)c(F)c2)C(=O)O1` [Cmpd 7, N-Acetyl-N'-[[(5S)-3-[3-fluoro-4-(4-morpholinyl)phenyl]-2-oxo-5-oxazolidinyl]methyl]acetimidate], the MIC with E. faecium OC3312 came out at 64 µg/mL (≈ 169 µM); with MRSA OC2878, 16 µg/mL (≈ 42.3 µM); with S. aureus OC4172 it was 32 µg/mL (≈ 84.6 µM).

In the case of `CC(=NC[C@H]1CN(c2ccc(N3CCOCC3)c(F)c2)C(=O)O1)NC#N` [Cmpd 2, N-Cyano-N'-[[(5S)-3-[3-fluoro-4-(4-morpholinyl)phenyl]-2-oxo-5-oxazolidinyl]methyl]ethanimidamide], the MIC with E. faecium OC3312 worked out at 2 µg/mL (≈ 5.53 µM); in the experiment on MRSA OC2878, 1 µg/mL (≈ 2.77 µM); against S. aureus OC4172, 2 µg/mL (≈ 5.53 µM).

As for `CCCC(=NC#N)NC[C@H]1CN(c2ccc(N3CCOCC3)c(F)c2)C(=O)O1` [Cmpd 5, N-Cyano-N'-[[(5S)-3-[3-fluoro-4-(4-morpholinyl)phenyl]-2-oxo-5-oxazolidinyl]methyl]butyrimidate], the MIC against E. faecium OC3312, against MRSA OC2878 and with S. aureus OC4172 was 8 µg/mL (≈ 20.5 µM) in each case.

For the molecule `CN=C(NC#N)NC[C@H]1CN(c2ccc(N3CCOCC3)c(F)c2)C(=O)O1` [Cmpd 1, N-Cyano-N'-[[(5S)-3-[3-fluoro-4-(4-morpholinyl)phenyl]-2-oxo-5-oxazolidinyl]methyl]-N"-methylguanidine], the MIC with E. faecium OC3312 came out at 32 µg/mL (≈ 85 µM); with MRSA OC2878, 32 µg/mL (≈ 85 µM); in the experiment on S. aureus OC4172 it was 16 µg/mL (≈ 42.5 µM).

Consider `CC(=N)NC[C@H]1CN(c2ccc(N3CCOCC3)c(F)c2)C(=O)O1` [Cmpd 6], for which the MIC against E. faecium OC3312 is more than 128 µg/mL; against MRSA OC2878, 128 µg/mL (≈ 381 µM); with S. aureus OC4172, more than 128 µg/mL.
